Numbers after ± are expanded uncertainties.
Experiment: activity coefficient (dimensionless); of the first substance listed, at infinite dilution; xn = mol fraction of the nth substance listed
Conditions: Liquid, Chromatography, x1 = 0

C1=CCCC=C1 [1,3-cyclohexadiene] + CCCC[N+](C)(C)C.O=S(=O)([N-]S(=O)(=O)C(F)(F)F)C(F)(F)F
activity coefficient (305.95 K): 3.59 ± 0.24 | activity coefficient (322.55 K): 3.37 ± 0.23 | activity coefficient (333.25 K): 3.18 ± 0.22 | activity coefficient (343.65 K): 3.03 ± 0.21 | activity coefficient (354.15 K): 2.91 ± 0.2 | activity coefficient (364.55 K): 2.81 ± 0.19

C1COCCO1 [1,4-dioxane] + CCCC[N+](C)(C)C.O=S(=O)([N-]S(=O)(=O)C(F)(F)F)C(F)(F)F
activity coefficient (343.75 K): 0.74 ± 0.05 | activity coefficient (354.25 K): 0.73 ± 0.05

C=CCCCCCCCC [1-decene] + CCCC[N+](C)(C)C.O=S(=O)([N-]S(=O)(=O)C(F)(F)F)C(F)(F)F
activity coefficient (306.15 K): 50.4 ± 3.5 | activity coefficient (311.95 K): 47.8 ± 3.3 | activity coefficient (322.55 K): 43.1 ± 3 | activity coefficient (333.25 K): 39 ± 2.7 | activity coefficient (343.65 K): 35.2 ± 2.4 | activity coefficient (354.05 K): 32.1 ± 2.2

C=CCCCCCCCCCC [1-dodecene] + CCCC[N+](C)(C)C.O=S(=O)([N-]S(=O)(=O)C(F)(F)F)C(F)(F)F
activity coefficient (333.25 K): 76.8 ± 5.3 | activity coefficient (343.75 K): 68.9 ± 4.7 | activity coefficient (354.05 K): 61.4 ± 4.2 | activity coefficient (364.55 K): 54.6 ± 3.7 | activity coefficient (371.95 K): 49 ± 3.4

C=CCCCCC [1-heptene] + CCCC[N+](C)(C)C.O=S(=O)([N-]S(=O)(=O)C(F)(F)F)C(F)(F)F
activity coefficient (306.75 K): 15.6 ± 1.1 | activity coefficient (311.95 K): 14.9 ± 1 | activity coefficient (322.55 K): 13.9 ± 0.95 | activity coefficient (333.25 K): 12.9 ± 0.88 | activity coefficient (343.65 K): 12 ± 0.82 | activity coefficient (354.05 K): 11.3 ± 0.77

C=CCCCCCCC [1-nonene] + CCCC[N+](C)(C)C.O=S(=O)([N-]S(=O)(=O)C(F)(F)F)C(F)(F)F
activity coefficient (306.65 K): 34.1 ± 2.3 | activity coefficient (311.98 K): 32.6 ± 2.2 | activity coefficient (322.55 K): 29.9 ± 2 | activity coefficient (333.25 K): 26.7 ± 1.8 | activity coefficient (343.65 K): 24.5 ± 1.7 | activity coefficient (354.05 K): 22.3 ± 1.5 | activity coefficient (364.55 K): 20.9 ± 1.4

C=CCCC [1-pentene] + CCCC[N+](C)(C)C.O=S(=O)([N-]S(=O)(=O)C(F)(F)F)C(F)(F)F
activity coefficient (301.85 K): 6.06 ± 0.41 | activity coefficient (312.35 K): 5.79 ± 0.39

C=CCCCCCCCCC [1-undecene] + CCCC[N+](C)(C)C.O=S(=O)([N-]S(=O)(=O)C(F)(F)F)C(F)(F)F
activity coefficient (322.55 K): 62.7 ± 4.3 | activity coefficient (333.25 K): 56.1 ± 3.8 | activity coefficient (343.65 K): 50.7 ± 3.5 | activity coefficient (354.05 K): 45.8 ± 3.1 | activity coefficient (364.55 K): 42.6 ± 2.9 | activity coefficient (374.95 K): 37.6 ± 2.6

CC(C)CO [2-methyl-1-propanol] + CCCC[N+](C)(C)C.O=S(=O)([N-]S(=O)(=O)C(F)(F)F)C(F)(F)F
activity coefficient (302.55 K): 3.98 ± 0.27 | activity coefficient (312.15 K): 3.52 ± 0.24 | activity coefficient (322.85 K): 3.13 ± 0.21 | activity coefficient (333.35 K): 2.72 ± 0.19 | activity coefficient (343.65 K): 2.46 ± 0.17 | activity coefficient (354.05 K): 2.23 ± 0.15

CCC(C)(C)O [2-methylbutan-2-ol] + CCCC[N+](C)(C)C.O=S(=O)([N-]S(=O)(=O)C(F)(F)F)C(F)(F)F
activity coefficient (302.55 K): 2.53 ± 0.17 | activity coefficient (312.15 K): 2.32 ± 0.16 | activity coefficient (333.25 K): 1.94 ± 0.13 | activity coefficient (343.65 K): 1.8 ± 0.12 | activity coefficient (354.05 K): 1.67 ± 0.11

CC(C)(C)O [2-methylpropan-2-ol] + CCCC[N+](C)(C)C.O=S(=O)([N-]S(=O)(=O)C(F)(F)F)C(F)(F)F
activity coefficient (302.55 K): 2.24 ± 0.15 | activity coefficient (312.15 K): 2.01 ± 0.14 | activity coefficient (322.85 K): 1.79 ± 0.12 | activity coefficient (333.25 K): 1.61 ± 0.11 | activity coefficient (343.65 K): 1.47 ± 0.1 | activity coefficient (354.05 K): 1.34 ± 0.09

CN1CCCC1=O [N-methylpyrrolidone] + CCCC[N+](C)(C)C.O=S(=O)([N-]S(=O)(=O)C(F)(F)F)C(F)(F)F
activity coefficient (312.35 K): 112 ± 7.7 | activity coefficient (322.75 K): 81.3 ± 5.6 | activity coefficient (333.35 K): 60.4 ± 4.1 | activity coefficient (343.75 K): 46.1 ± 3.1 | activity coefficient (354.15 K): 36.5 ± 2.5 | activity coefficient (364.75 K): 28 ± 1.9 | activity coefficient (375.15 K): 22.4 ± 1.5

CC(C)=O [acetone] + CCCC[N+](C)(C)C.O=S(=O)([N-]S(=O)(=O)C(F)(F)F)C(F)(F)F
activity coefficient (301.85 K): 0.42 ± 0.04 | activity coefficient (312.45 K): 0.42 ± 0.04 | activity coefficient (343.75 K): 0.4 ± 0.03

CC#N [acetonitrile] + CCCC[N+](C)(C)C.O=S(=O)([N-]S(=O)(=O)C(F)(F)F)C(F)(F)F
activity coefficient (301.75 K): 0.52 ± 0.04 | activity coefficient (312.45 K): 0.5 ± 0.04 | activity coefficient (322.95 K): 0.49 ± 0.04 | activity coefficient (333.35 K): 0.47 ± 0.04 | activity coefficient (343.75 K): 0.46 ± 0.04

c1ccccc1 [benzene] + CCCC[N+](C)(C)C.O=S(=O)([N-]S(=O)(=O)C(F)(F)F)C(F)(F)F
activity coefficient (322.75 K): 1.3 ± 0.08 | activity coefficient (333.35 K): 1.26 ± 0.08 | activity coefficient (343.55 K): 1.26 ± 0.08 | activity coefficient (354.05 K): 1.22 ± 0.08 | activity coefficient (364.45 K): 1.2 ± 0.08

CCCCO [butan-1-ol] + CCCC[N+](C)(C)C.O=S(=O)([N-]S(=O)(=O)C(F)(F)F)C(F)(F)F
activity coefficient (302.55 K): 3.62 ± 0.25 | activity coefficient (312.15 K): 3.22 ± 0.22 | activity coefficient (322.85 K): 2.83 ± 0.19 | activity coefficient (333.35 K): 2.49 ± 0.17 | activity coefficient (343.65 K): 2.24 ± 0.15

CCC(C)O (stereo not given) [butan-2-ol] + CCCC[N+](C)(C)C.O=S(=O)([N-]S(=O)(=O)C(F)(F)F)C(F)(F)F
activity coefficient (333.15 K): 2.06 ± 0.14 | activity coefficient (343.65 K): 1.87 ± 0.13 | activity coefficient (354.05 K): 1.7 ± 0.11 | activity coefficient (364.45 K): 1.53 ± 0.1 | activity coefficient (374.95 K): 1.38 ± 0.09

CCCC=O [butanal] + CCCC[N+](C)(C)C.O=S(=O)([N-]S(=O)(=O)C(F)(F)F)C(F)(F)F
activity coefficient (301.75 K): 0.84 ± 0.05 | activity coefficient (312.25 K): 0.8 ± 0.05 | activity coefficient (322.75 K): 0.79 ± 0.05 | activity coefficient (343.55 K): 0.77 ± 0.05 | activity coefficient (354.15 K): 0.76 ± 0.05

CCCCc1ccccc1 [butylbenzene] + CCCC[N+](C)(C)C.O=S(=O)([N-]S(=O)(=O)C(F)(F)F)C(F)(F)F
activity coefficient (333.25 K): 5.77 ± 0.39 | activity coefficient (343.65 K): 5.62 ± 0.38 | activity coefficient (354.05 K): 5.43 ± 0.37 | activity coefficient (364.45 K): 5.31 ± 0.36 | activity coefficient (374.95 K): 5.16 ± 0.35

C1CCCCC1 [cyclohexane] + CCCC[N+](C)(C)C.O=S(=O)([N-]S(=O)(=O)C(F)(F)F)C(F)(F)F
activity coefficient (300.95 K): 4.15 ± 0.28 | activity coefficient (312.25 K): 3.84 ± 0.26 | activity coefficient (322.85 K): 3.6 ± 0.25 | activity coefficient (333.35 K): 3.37 ± 0.23

OC1CCCCC1 [cyclohexanol] + CCCC[N+](C)(C)C.O=S(=O)([N-]S(=O)(=O)C(F)(F)F)C(F)(F)F
activity coefficient (343.65 K): 3.52 ± 0.24 | activity coefficient (354.05 K): 2.89 ± 0.2 | activity coefficient (364.45 K): 2.54 ± 0.17 | activity coefficient (373.95 K): 2.27 ± 0.15 | activity coefficient (385.55 K): 1.95 ± 0.13

C1=CCCCC1 [cyclohexene] + CCCC[N+](C)(C)C.O=S(=O)([N-]S(=O)(=O)C(F)(F)F)C(F)(F)F
activity coefficient (312.05 K): 6.87 ± 0.47 | activity coefficient (322.55 K): 6.45 ± 0.44 | activity coefficient (333.25 K): 5.94 ± 0.4 | activity coefficient (343.65 K): 5.5 ± 0.37 | activity coefficient (354.15 K): 5.31 ± 0.36

CCCCCCCCCC [decane] + CCCC[N+](C)(C)C.O=S(=O)([N-]S(=O)(=O)C(F)(F)F)C(F)(F)F
activity coefficient (302.15 K): 97.8 ± 6.7 | activity coefficient (312.15 K): 87.5 ± 6 | activity coefficient (322.65 K): 77.5 ± 5.3 | activity coefficient (333.25 K): 67.2 ± 4.6 | activity coefficient (343.65 K): 59.9 ± 4.1 | activity coefficient (354.05 K): 53.7 ± 3.7

CN(C)C=O [dimethylformamide] + CCCC[N+](C)(C)C.O=S(=O)([N-]S(=O)(=O)C(F)(F)F)C(F)(F)F
activity coefficient (364.55 K): 0.29 ± 0.03 | activity coefficient (375.15 K): 0.29 ± 0.03 | activity coefficient (385.55 K): 0.3 ± 0.03 | activity coefficient (396.15 K): 0.3 ± 0.03

CCCCCCCCCCCC [dodecane] + CCCC[N+](C)(C)C.O=S(=O)([N-]S(=O)(=O)C(F)(F)F)C(F)(F)F
activity coefficient (333.25 K): 128 ± 8.8 | activity coefficient (343.65 K): 110 ± 7.5 | activity coefficient (354.05 K): 92.3 ± 6.3

CCO [ethanol] + CCCC[N+](C)(C)C.O=S(=O)([N-]S(=O)(=O)C(F)(F)F)C(F)(F)F
activity coefficient (312.25 K): 1.94 ± 0.13 | activity coefficient (322.85 K): 1.73 ± 0.12 | activity coefficient (333.25 K): 1.57 ± 0.1 | activity coefficient (343.65 K): 1.41 ± 0.09

CCc1ccccc1 [ethylbenzene] + CCCC[N+](C)(C)C.O=S(=O)([N-]S(=O)(=O)C(F)(F)F)C(F)(F)F
activity coefficient (322.85 K): 2.79 ± 0.19 | activity coefficient (333.25 K): 2.76 ± 0.19 | activity coefficient (343.75 K): 2.65 ± 0.18 | activity coefficient (354.15 K): 2.6 ± 0.18

CCCCCCCO [heptan-1-ol] + CCCC[N+](C)(C)C.O=S(=O)([N-]S(=O)(=O)C(F)(F)F)C(F)(F)F
activity coefficient (354.05 K): 3.47 ± 0.24 | activity coefficient (364.63 K): 3.11 ± 0.21 | activity coefficient (375.05 K): 2.81 ± 0.19 | activity coefficient (386.6 K): 2.58 ± 0.18

CCCCCCC=O [heptanal] + CCCC[N+](C)(C)C.O=S(=O)([N-]S(=O)(=O)C(F)(F)F)C(F)(F)F
activity coefficient (354.15 K): 1.84 ± 0.12 | activity coefficient (364.65 K): 1.73 ± 0.12 | activity coefficient (374.95 K): 1.6 ± 0.11 | activity coefficient (385.45 K): 1.48 ± 0.1 | activity coefficient (395.95 K): 1.36 ± 0.09

CCCCCCC [heptane] + CCCC[N+](C)(C)C.O=S(=O)([N-]S(=O)(=O)C(F)(F)F)C(F)(F)F
activity coefficient (301.62 K): 30.2 ± 2.1 | activity coefficient (312.15 K): 27.7 ± 1.9 | activity coefficient (322.75 K): 25.6 ± 1.8 | activity coefficient (333.25 K): 23.4 ± 1.6

C=CCCCC [hex-1-ene] + CCCC[N+](C)(C)C.O=S(=O)([N-]S(=O)(=O)C(F)(F)F)C(F)(F)F
activity coefficient (305.85 K): 10.2 ± 0.7 | activity coefficient (312.35 K): 9.81 ± 0.67 | activity coefficient (322.55 K): 9.46 ± 0.65 | activity coefficient (343.65 K): 8.63 ± 0.59 | activity coefficient (364.55 K): 7.93 ± 0.54

Reference: the NIST ThermoML archive (doi:10.1021/je050440b)
